# Data: PMC6323060, “Expression in eukaryotic cells and purification of synthetic gene encoding enterocin P: a bacteriocin with broad antimicrobial spectrum” (AMB Express, 2019)
# Ends that are not written are not given here.
# Tests used:
# [1] = tested on: Listeria monocytogenes; test: MIC, broth micro-dilution (CLSI); details: for MIC: Listeria monocytogenes, read-out: Antimicrobial activity MIC
# [2] = tested on: Salmonella typhi; test: MIC, broth micro-dilution (CLSI); format: cell-based; details: Salmonella typhi clinical isolate, MHB, approx. 5 × 10^5 CFU/ml, overnight 37 °C, triplicate; for MIC: Salmonella enterica, read-out: Antimicrobial activity MIC
# [3] = tested on: Shigella dysenteriae; test: MIC, broth micro-dilution (CLSI); format: cell-based; details: for MIC: Shigella dysenteriae, read-out: Antimicrobial activity MIC
# [4] = tested on: Acinetobacter baumannii ATCC 13304; test: MIC, broth micro-dilution (CLSI); details: ATCC13304, read-out: Antimicrobial activity MIC
# [5] = tested on: Pseudomonas aeruginosa ATCC 27853; test: MIC, broth micro-dilution (CLSI); details: for MIC: Pseudomonas aeruginosa, ATCC27853, read-out: Antimicrobial activity MIC
# [6] = tested on: E. coli ATCC 25922; test: MIC, broth micro-dilution (CLSI); details: Escherichia coli, ATCC25922, read-out: Antimicrobial activity MIC
# [7] = tested on: Salmonella paratyphi C; test: MIC, broth micro-dilution (CLSI); format: cell-based; details: Salmonella enterica, read-out: Antimicrobial activity MIC
# [8] = tested on: Klebsiella pneumonia ATCC 700603; test: MIC, broth micro-dilution (CLSI); details: for MIC: Klebsiella pneumoniae, ATCC700603, read-out: Antimicrobial activity MIC
# [9] = tested on: Pseudomonas aeruginosa VIM+; test: MIC, broth micro-dilution (CLSI); details: for MIC: Pseudomonas aeruginosa, read-out: Antimicrobial activity MIC
# [10] = tested on: Staphylococcus aureus ATCC 29213; test: MIC, broth micro-dilution (CLSI); details: for MIC: Staphylococcus aureus, ATCC29213, read-out: Antimicrobial activity MIC
# [11] = tested on: Staphylococcus aureus ATCC 25923; test: MIC, broth micro-dilution (CLSI); details: for MIC: Staphylococcus aureus, ATCC25923, read-out: Antimicrobial activity MIC
# [12] = tested on: Enterococcus faecalis ATCC 29212; test: MIC, broth micro-dilution (CLSI); details: for MIC: Enterococcus faecalis, ATCC29212, read-out: Antimicrobial activity MIC
# [13] = tested on: VRE; test: MIC, broth micro-dilution (CLSI); details: for MIC: Enterococcus, VRE, read-out: Antimicrobial activity MIC
# [14] = tested on: E. coli (ATCC 25922); test: Effect of salt (NaCl) on antimicrobial activity; format: cell-based, Escherichia coli; parameters: key: +: presence of activity; −: absence of activity; details: 4 h, CFU counted after 24 h at 37 °C, triplicate
# Protocol: (§1) To investigate the activities of the EntP peptide in the presence of high salt concentrations, the MIC was determined as described above, except that fixed concentration of NaCl was added to each well of the microtiter plate. Overnight cultures of S. aureus (ATCC 25923) and E. coli (ATCC 25922) as Gram-positive and Gram-negative model strains were incubated in MHB with 0, 50, 100, or 150 mM NaCl for 4 h. Bacteria were serially diluted and plated in triplicate on Trypticase soy agar (HiMedia, India) plates. CFUs were counted after 24 h of incubation at 37 °C. The stability of EntP peptide in 50% human plasma was evaluated as previously described (Hou et al. [2011]). The human plasma was determined to contain no antimicrobial activity before the test. Then 800 μg/ml of recombinant EntP peptide was diluted 1:1 with fresh human plasma and incubated at 37 °C for 0, 3, or 6 h. After incubation, the antimicrobial activity of each sample was determined by MIC assays with S. aureus (ATCC 25923) and E. coli (ATCC 25922).
# [15] = tested on: S. aureus (ATCC 25923); test: Stability in 50% human plasma, read out as antimicrobial activity (MIC assay); format: in vitro ADME, Staphylococcus aureus; parameters: key: +: presence of activity; −: absence of activity; details: 800 μg/ml peptide diluted 1:1 with fresh human plasma (50%), 37 °C
# Protocol: as §1
# [16] = tested on: S. aureus (ATCC 25923) and E. coli (ATCC 25922); test: Antimicrobial activity in 50% human plasma, overall statement; format: in vitro ADME; details: 37 °C, 0, 3 or 6 h, read-out MIC assay
# Protocol: as §1
# [17] = tested on: MRSA ATCC 33591; test: MIC, broth micro-dilution (CLSI); details: for MIC: Staphylococcus aureus, read-out: Antimicrobial activity MIC
# [18] = tested on: E. coli (ATCC 25922); test: Stability in 50% human plasma, read out as antimicrobial activity (MIC assay); format: in vitro ADME, Escherichia coli; parameters: key: +: presence of activity; −: absence of activity; details: 800 μg/ml peptide diluted 1:1 with fresh human plasma (50%), 37 °C
# Protocol: as §1
# [19] = tested on: S. aureus (ATCC 25923); test: Effect of salt (NaCl) on antimicrobial activity; format: cell-based, Staphylococcus aureus; parameters: key: +: presence of activity; −: absence of activity; details: 4 h, CFU counted after 24 h at 37 °C, triplicate
# Protocol: as §1
molecule,measurement,setting,value
CCN1CCN(C(=O)N[C@@H](C(=O)N[C@@H]2C(=O)N3[C@@H]2SC(C)(C)[C@@H]3C(=O)O)c2ccccc2)C(=O)C1=O [Piperacillin],MIC,[1],4 µg/mL
same,MIC,[2],4 µg/mL
same,MIC,[3],4 µg/mL
same,MIC,[4],≥ 64 µg/mL
same,MIC,[5],≤ 8 µg/mL
same,MIC,[6],≤ 8 µg/mL
same,MIC,[7],≤ 8 µg/mL
same,MIC,[8],≥ 128 µg/mL
same,MIC,[9],≥ 128 µg/mL
CC1(C)S[C@@H]2[C@H](NC(=O)[C@H](N)c3ccccc3)C(=O)N2[C@H]1C(=O)O [Ampicillin],MIC,[10],≤ 1 µg/mL
same,MIC,[11],≤ 1 µg/mL
same,MIC,[1],2 µg/mL
same,MIC,[2],2 µg/mL
same,MIC,[3],4 µg/mL
same,MIC,[12],≤ 1 µg/mL
same,MIC,[6],≤ 2 µg/mL
same,MIC,[7],2 µg/mL
same,MIC,[8],> 128 µg/mL
"enterocin P (ATRSYGNGVYCNNSKCWVNWGEAKENIAGIVISGWASGLAGMGH-{H2N-H2N-H2N-H2N-H2N-H2N}; ends and bridges not checked; UniProt O30434 28-71, looked up) [EntP]",Antimicrobial activity MIC,"[10]; Staphylococcus aureus ATCC 29213, broth micro-dilution (CLSI), MHB, approx. 5 × 10^5 CFU/ml, overnight 37 °C, triplicate",8 µg/mL
same,Antimicrobial activity MIC,"[13]; VRE clinical isolate (resistant strain), broth micro-dilution (CLSI), MHB, approx. 5 × 10^5 CFU/ml, overnight 37 °C, triplicate",64 µg/mL
same,Activity after treatment with salt,[14]; 0 mM NaCl in MHB,+
same,Activity after treatment with salt,[14]; 50 mM NaCl in MHB,+
same,Activity after treatment with salt,[14]; 100 mM NaCl in MHB,+
same,Activity after treatment with salt,[14]; 150 mM NaCl in MHB,−
same,Activity after treatment with plasma,[15]; 0 h,+
same,Activity after treatment with plasma,[15]; 3 h,+
same,Activity after treatment with plasma,[15]; 6 h,+
same,Antimicrobial activity MIC,"[11]; Staphylococcus aureus ATCC 25923, broth micro-dilution (CLSI), MHB, approx. 5 × 10^5 CFU/ml, overnight 37 °C, triplicate",8 µg/mL
same,Antimicrobial activity MIC,"[1]; Listeria monocytogenes clinical isolate, broth micro-dilution (CLSI), MHB, approx. 5 × 10^5 CFU/ml, overnight 37 °C, triplicate",32 µg/mL
same,Antimicrobial activity in 50% human plasma compared with PBS,[16],not significantly different from that in PBS
same,Antimicrobial activity MIC,[2],16 µg/mL
same,Antimicrobial activity MIC,"[3]; Shigella dysenteriae clinical isolate, broth micro-dilution (CLSI), MHB, approx. 5 × 10^5 CFU/ml, overnight 37 °C, triplicate",128 µg/mL
same,Antimicrobial activity MIC,"[17]; MRSA ATCC 33591 (resistant strain), broth micro-dilution (CLSI), MHB, approx. 5 × 10^5 CFU/ml, overnight 37 °C, triplicate",64 µg/mL
same,Antimicrobial activity MIC,"[12]; Enterococcus faecalis ATCC 29212, broth micro-dilution (CLSI), MHB, approx. 5 × 10^5 CFU/ml, overnight 37 °C, triplicate",16 µg/mL
same,Antimicrobial activity MIC,"[5]; Pseudomonas aeruginosa ATCC 27853, broth micro-dilution (CLSI), MHB, approx. 5 × 10^5 CFU/ml, overnight 37 °C, triplicate",8 µg/mL
same,Activity after treatment with plasma,[18]; 0 h,+
same,Activity after treatment with plasma,[18]; 3 h,+
same,Activity after treatment with plasma,[18]; 6 h,+
same,Activity after treatment with salt,[19]; 0 mM NaCl in MHB,+
same,Activity after treatment with salt,[19]; 50 mM NaCl in MHB,+
same,Activity after treatment with salt,[19]; 100 mM NaCl in MHB,+
same,Activity after treatment with salt,[19]; 150 mM NaCl in MHB,−
same,Antimicrobial activity MIC,"[8]; Klebsiella pneumonia ATCC 700603 (resistant strain), broth micro-dilution (CLSI), MHB, approx. 5 × 10^5 CFU/ml, overnight 37 °C, triplicate",8 µg/mL
same,Antimicrobial activity MIC,"[9]; Pseudomonas aeruginosa VIM+ (resistant strain), broth micro-dilution (CLSI), MHB, approx. 5 × 10^5 CFU/ml, overnight 37 °C, triplicate",256 µg/mL
CC(C)(O/N=C(\C(=O)N[C@@H]1C(=O)N2C(C(=O)[O-])=C(C[n+]3ccccc3)CS[C@H]12)c1csc(N)n1)C(=O)O [Ceftazidime],MIC,[10],≤ 2 µg/mL
same,MIC,[13],32 µg/mL
same,MIC,[11],≤ 2 µg/mL
same,MIC,[1],≤ 4 µg/mL
same,MIC,[2],4 µg/mL
same,MIC,[3],≤ 2 µg/mL
same,MIC,[4],≥ 32 µg/mL
same,MIC,[17],16 µg/mL
same,MIC,[12],≤ 4 µg/mL
same,MIC,[5],2 µg/mL
same,MIC,[6],≤ 2 µg/mL
same,MIC,[7],4 µg/mL
same,MIC,[8],≥ 16 µg/mL
same,MIC,[9],≥ 32 µg/mL
CN[C@H](CC(C)C)C(=O)N[C@H]1C(=O)N[C@@H](CC(N)=O)C(=O)N[C@H]2C(=O)N[C@H]3C(=O)N[C@H](C(=O)N[C@H](C(=O)O)c4cc(O)cc(O)c4-c4cc3ccc4O)[C@H](O)c3ccc(c(Cl)c3)Oc3cc2cc(c3O[C@@H]2O[C@H](CO)[C@@H](O)[C@H](O)[C@H]2O[C@H]2C[C@](C)(N)[C@H](O)[C@H](C)O2)Oc2ccc(cc2Cl)[C@H]1O [Vancomycin],MIC,[10],≤ 1 µg/mL
same,MIC,[13],≥ 32 µg/mL
same,MIC,[11],≤ 1 µg/mL
same,MIC,[1],1 µg/mL
same,MIC,[17],≥ 16 µg/mL
same,MIC,[12],≤ 1 µg/mL
CNC(C)C1CCC(N)C(OC2C(N)CC(N)C(OC3OCC(C)(O)C(NC)C3O)C2O)O1 (stereo not drawn) [Gentamicin],MIC,[10],≤ 1 µg/mL
same,MIC,[13],≥ 16 µg/mL
same,MIC,[11],≤ 1 µg/mL
same,MIC,[1],8 µg/mL
same,MIC,[2],≤ 2 µg/mL
same,MIC,[3],4 µg/mL
same,MIC,[4],≥ 16 µg/mL
same,MIC,[17],≥ 16 µg/mL
same,MIC,[12],≤ 1 µg/mL
same,MIC,[5],≤ 16 µg/mL
same,MIC,[6],≤ 1 µg/mL
same,MIC,[7],≤ 1 µg/mL
same,MIC,[8],≥ 16 µg/mL
same,MIC,[9],≥ 16 µg/mL
